Assay results published in patent publication US20260035372A1, “METHOD FOR PREPARING (R)-KETOROLAC AND USE THEREOF” (Yinuoke Medicine Science and Technology Co LTD, priority 2022, published 2026).

How the values were obtained:
[1] = system: colon cancer model Colon-26; conditions: Colon-26 in BALB/C mice; cyclophosphamide i.p. 3 mg every 6 d x3, with or without (R)-ketorolac 0.1 mg/d x18
Experimental: (§1) The colon cancer tumor model was established by using adult male BALB/C mice which were subcutaneously inoculated 106 well-growing Colon-26 tumor cells. Starting from the 7th day after tumor inoculation, the two largest diameters of the tumors were measured with vernier calipers twice a week, and the tumor size was expressed as area (square millimeters). After the tumors grew to a certain size, the mice were randomly divided into 4 groups, including a control group (n=5) and 3 treatment groups: the (R)-ketorolac monotherapy group (n=5) was administered by gavage, 0.1 mg/d, for a total of 12 d; the gemcitabine monotherapy group (n=4) was administered intraperitoneally, 2 mg/1 time every 3 d, for a total of 4 times; and the combined therapy group (n=5) adopted the two drugs in combination, and the dosage and frequency of administration were the same as those in the monotherapy group.
The colon cancer tumor model was established as described in the above.
After starting the treatment, the tumors were measured twice a week, and a tumor growth curve was made based on average tumor area±SEM.

[2] = system: colon cancer model Colon-26; experiment: (R)-ketorolac combined with gemcitabine on colon cancer model Colon-26, tumor growth curve; format: in vivo; conditions: Colon-26 s.c. in male BALB/C mice; (R)-ketorolac alone by gavage 0.1 mg/d for 12 d
Experimental: as §1
After starting the treatment, the tumors were measured twice a week, and a tumor growth curve was made based on average tumor area=SEM.

[3] = system: aortic dissection and aortic aneurysm; conditions: oral administration; from CN202111115983.X; cited from earlier work
[4] = stronger than (R)-ketorolac; cited from earlier work
[5] = stronger than (R)-ketorolac; cited from earlier work; remark: listed apart in the source

Question: Which results are given for O=P1(N(CCCl)CCCl)NCCCO1 (stereo not drawn) [cyclophosphamide]?
Answer: cure rate [1]: 16.7%; mice completely cured [1]: 1 out of 6

Question: For O=C(c1ccccc1)c1ccc2n1CC[C@H]2C(=O)O [(R)-ketorolac], which “effect on colon cancer tumor growth (tumor area growth curve, FIG. 16)” value [2] is on record?
Answer: The value was “no effect”.

Question: What about the “effect on aortic dilation, incidence and mortality of aortic dissection and aortic aneurysm” value [3] of the same compound?
Answer: Its value is “inhibit pathological dilation of the aorta and reduce the incidence and mortality of aortic dissection and aortic aneurysm”.

Question: For O=C(c1ccccc1)c1ccc2n1CC[C@@H]2C(=O)O [(S)-ketorolac], which “analgesic effect relative to (R)-ketorolac” value [4] is on record?
Answer: The value was 230 times.

Question: What about the “anti-inflammatory effect relative to (R)-ketorolac” value [5] of the same compound?
Answer: The value was 60 times.
